Laboratory results reported in PMC2581485, “Ca^2+ Signaling Occurs via Second Messenger Release from Intraorganelle Synthesis Sites” (Current Biology, 2008).

Assays:
recombinant ARCα = biological target: T1, recombinant ARCα (Strongylocentrotus purpuratus, UniProt A5HNF3); test: radiometric TLC of […]cADPR formation; format: biochemical; details: 16 nM substrate; labelled compound; 1 h, 20 °C; pH varied, acidic pH preferred
T1 construct: gene ARCA

recombinant ARCβ = biological target: T2, recombinant ARCβ (Strongylocentrotus purpuratus, UniProt A5HNF4); test: radiometric TLC of […]cADPR formation; format: biochemical; details: 16 nM substrate; labelled compound; 1 h, 20 °C; pH varied, acidic pH preferred
T2 construct: gene ARCB
T2 sequence (A5HNF4 entry or part of it): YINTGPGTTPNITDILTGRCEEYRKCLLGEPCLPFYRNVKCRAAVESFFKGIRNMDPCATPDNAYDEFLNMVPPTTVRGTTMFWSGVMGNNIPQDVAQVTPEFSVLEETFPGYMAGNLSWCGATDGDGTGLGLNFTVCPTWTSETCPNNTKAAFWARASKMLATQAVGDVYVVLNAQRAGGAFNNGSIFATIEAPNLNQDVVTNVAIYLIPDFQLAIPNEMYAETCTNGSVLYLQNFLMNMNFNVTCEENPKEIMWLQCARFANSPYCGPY

T1 sequence (A5HNF3 entry or part of it): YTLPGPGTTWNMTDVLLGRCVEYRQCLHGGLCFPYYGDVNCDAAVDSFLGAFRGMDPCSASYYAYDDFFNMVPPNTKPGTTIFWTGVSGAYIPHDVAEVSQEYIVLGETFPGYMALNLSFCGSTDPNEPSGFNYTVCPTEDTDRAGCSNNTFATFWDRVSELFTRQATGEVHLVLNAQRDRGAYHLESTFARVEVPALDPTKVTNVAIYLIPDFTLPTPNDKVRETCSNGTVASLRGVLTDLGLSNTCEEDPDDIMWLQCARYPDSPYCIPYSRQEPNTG

In the case of `N=c1c2ncn3c2ncn1[C@@H]1O[C@H](COP(=O)(O)OP(=O)(O)OC[C@H]2O[C@@H]3[C@H](O)[C@@H]2O)[C@@H](O)[C@H]1O` [cADPR], the “radiometric TLC of [32P]cADPR formation” value (recombinant ARCα) is reported as “recombinant (Figure 3D) and endogenous (Figure 3C) sea urchin ARCs preferentially synthesize cADPR” and the “radiometric TLC of [32P]cADPR formation” value (recombinant ARCβ) is reported as “pH dependency of recombinant ARCα or ARCβ is shown”.

With `NC(=O)c1ccc[n+]([C@@H]2O[C@H](COP(=O)([O-])OP(=O)(O)OC[C@H]3O[C@@H](n4cnc5c(N)ncnc54)[C@H](O)[C@@H]3O)[C@@H](O)[C@H]2O)c1` [β-NAD^+] the “radiometric TLC of [32P]cADPR formation” value (recombinant ARCα) was “recombinant (Figure 3D) and endogenous (Figure 3C) sea urchin ARCs preferentially synthesize cADPR” and the “radiometric TLC of [32P]cADPR formation” value (recombinant ARCβ) was “pH dependency of recombinant ARCα or ARCβ is shown”.
